Measurements published in patent publication US9777012B2, “Substituted furo[2,3-d]pyrimidines as multi-targeted receptor tyrosine kinase inhibitors and microtubule targeting antitumor agents” (Duquesne University of the Holy Spirit, priority 2014, dated 2017).
Several values for one entry are separate records, joined by “and”; a condition that tells them apart may be missing. Equal entries are not always repeated. One block for each compound: values may come before it.

How the values were obtained:
[1] = system: cellular microtubules in A-10 cells; test: Cellular microtubule depolymerization, indirect immunofluorescence; type: cell-based; details: for effect on cellular microtubules: result in words
tubulin = test: Inhibition of tubulin assembly (purified tubulin); type: biochemical; details: read-out: Inhibition tubulin assembly IC50(μM) ± SD
M6/6 cells = test: SRB antiproliferative assay, M6/6 (SK-OV-3 expressing Pgp); type: cell-based; details: for Rr value: relative resistance, M6/6 (Pgp) vs parental SKOV3; for IC50: Homo sapiens, SK-OV-3, SRB assay, 48 h, Pgp expressing, read-out: IC50 ± SD in M6/6 cells
WTβ3 cells = test: SRB antiproliferative assay, WTβ3 (HeLa overexpressing βIII tubulin); type: cell-based; details: relative resistance, WTβ3 vs parental HeLa
EGFR = target: T1, EGFR (Homo sapiens, UniProt P00533); test: Phosphotyrosine ELISA cytoblot, EGFR (A431 cells); type: cell-based; details: EGF stimulation, read-out: EGFR kinase inhibition
T1 construct: tumor cell lines naturally expressing high levels of EGFR (A431); endogenous in cells; host or cells: A431

PDGFR-β = target: T2, PDGFR-β (Homo sapiens, UniProt P09619); test: Phosphotyrosine ELISA cytoblot, PDGFR-β (SH-SY5Y cells); type: cell-based; details: for IC50: SH-SY5Y cells, phosphotyrosine ELISA, PDGF-BB stimulation, read-out: PDGFR-β kinase inhibition; for fold better than sunitinib, PDGFR-β: PDGFR-β expressing cells
T2 construct: naturally expressing high levels of EGFR (A431), VEGFR-2 (U251), and PDGFR-β (SH-SY5Y); endogenous in cells; host or cells: SH-SY5Y

A431 cancer cells = test: A431 cytotoxicity (cell proliferation); type: cell-based; details: Homo sapiens, A-431; A431 cancer cells overexpressing EGFR
VEGFR-2 = target: T3, VEGFR-2 (Homo sapiens, UniProt P35968); test: Phosphotyrosine ELISA cytoblot, VEGFR-2 (U251 cells); type: cell-based; details: for IC50: U251 cells, phosphotyrosine ELISA, VEGF stimulation, read-out: VEGFR-2 kinase inhibition; for fold better than sunitinib, VEGFR-2: VEGFR-2 expressing cells
T3 construct: tumor cell lines naturally expressing high levels of EGFR (A431), VEGFR-2 (U251); endogenous in cells; host or cells: U251
T3 sequence (P35968 20-1356): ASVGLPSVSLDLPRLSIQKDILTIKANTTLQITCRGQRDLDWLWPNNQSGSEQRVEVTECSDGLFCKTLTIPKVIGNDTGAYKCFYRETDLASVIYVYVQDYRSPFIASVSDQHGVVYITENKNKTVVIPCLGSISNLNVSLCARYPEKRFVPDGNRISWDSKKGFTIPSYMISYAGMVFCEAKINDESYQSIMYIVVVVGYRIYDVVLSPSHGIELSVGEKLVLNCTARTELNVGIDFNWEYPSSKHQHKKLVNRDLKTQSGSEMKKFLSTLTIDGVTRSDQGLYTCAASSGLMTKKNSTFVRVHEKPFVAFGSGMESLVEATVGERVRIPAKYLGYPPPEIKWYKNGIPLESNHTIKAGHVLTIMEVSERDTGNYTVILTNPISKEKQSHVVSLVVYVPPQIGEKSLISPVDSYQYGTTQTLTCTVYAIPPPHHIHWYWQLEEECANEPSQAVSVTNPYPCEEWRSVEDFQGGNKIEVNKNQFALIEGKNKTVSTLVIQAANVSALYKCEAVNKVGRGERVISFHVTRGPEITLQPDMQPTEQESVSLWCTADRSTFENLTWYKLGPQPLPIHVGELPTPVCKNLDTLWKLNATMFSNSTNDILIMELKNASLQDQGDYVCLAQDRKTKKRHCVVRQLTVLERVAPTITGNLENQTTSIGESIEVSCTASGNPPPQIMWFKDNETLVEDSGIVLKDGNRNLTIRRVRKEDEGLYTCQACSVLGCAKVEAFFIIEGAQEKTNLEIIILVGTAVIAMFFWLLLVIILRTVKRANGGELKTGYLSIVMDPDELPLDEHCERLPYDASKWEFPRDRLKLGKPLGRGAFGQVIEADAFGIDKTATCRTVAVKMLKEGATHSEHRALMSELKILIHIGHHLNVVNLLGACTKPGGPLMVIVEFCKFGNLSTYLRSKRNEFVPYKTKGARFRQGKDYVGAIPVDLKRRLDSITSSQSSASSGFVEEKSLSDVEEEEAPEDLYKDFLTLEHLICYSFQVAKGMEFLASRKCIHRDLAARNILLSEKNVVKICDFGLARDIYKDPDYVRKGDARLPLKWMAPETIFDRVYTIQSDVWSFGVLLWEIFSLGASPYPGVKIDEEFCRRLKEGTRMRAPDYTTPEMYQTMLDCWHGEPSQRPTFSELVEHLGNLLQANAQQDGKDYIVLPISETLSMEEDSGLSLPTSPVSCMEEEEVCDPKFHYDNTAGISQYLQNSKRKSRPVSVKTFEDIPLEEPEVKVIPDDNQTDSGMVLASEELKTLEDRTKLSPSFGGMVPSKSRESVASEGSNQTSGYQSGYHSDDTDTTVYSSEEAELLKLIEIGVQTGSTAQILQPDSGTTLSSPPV

T2 sequence (P09619 33-1106): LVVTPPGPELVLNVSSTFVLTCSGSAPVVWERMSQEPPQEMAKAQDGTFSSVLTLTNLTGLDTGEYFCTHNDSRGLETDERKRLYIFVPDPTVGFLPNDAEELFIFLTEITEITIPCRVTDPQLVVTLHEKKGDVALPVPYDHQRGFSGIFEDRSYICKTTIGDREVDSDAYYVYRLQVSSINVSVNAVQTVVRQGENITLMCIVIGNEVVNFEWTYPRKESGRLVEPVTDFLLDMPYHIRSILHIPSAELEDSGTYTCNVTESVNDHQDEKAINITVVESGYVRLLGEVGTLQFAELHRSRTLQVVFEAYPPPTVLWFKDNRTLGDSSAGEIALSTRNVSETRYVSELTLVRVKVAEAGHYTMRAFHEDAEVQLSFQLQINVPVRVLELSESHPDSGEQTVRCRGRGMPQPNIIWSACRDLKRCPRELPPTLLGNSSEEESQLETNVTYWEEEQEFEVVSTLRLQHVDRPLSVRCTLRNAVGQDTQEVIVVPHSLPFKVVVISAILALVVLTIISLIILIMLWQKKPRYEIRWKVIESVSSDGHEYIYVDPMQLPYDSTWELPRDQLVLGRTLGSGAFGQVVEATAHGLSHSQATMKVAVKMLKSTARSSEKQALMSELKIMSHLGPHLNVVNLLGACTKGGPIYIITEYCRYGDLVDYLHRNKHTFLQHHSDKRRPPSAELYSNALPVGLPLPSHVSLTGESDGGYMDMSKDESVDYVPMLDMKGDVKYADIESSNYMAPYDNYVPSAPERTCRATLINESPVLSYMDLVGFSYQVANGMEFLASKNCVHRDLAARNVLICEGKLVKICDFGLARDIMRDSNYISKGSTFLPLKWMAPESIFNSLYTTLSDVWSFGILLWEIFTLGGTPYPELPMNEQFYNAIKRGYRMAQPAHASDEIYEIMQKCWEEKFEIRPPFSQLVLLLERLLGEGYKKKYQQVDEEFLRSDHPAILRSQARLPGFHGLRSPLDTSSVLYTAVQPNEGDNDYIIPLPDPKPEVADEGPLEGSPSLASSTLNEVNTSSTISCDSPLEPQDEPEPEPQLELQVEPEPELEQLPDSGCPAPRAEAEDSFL
T1 sequence (P00533 25-1210): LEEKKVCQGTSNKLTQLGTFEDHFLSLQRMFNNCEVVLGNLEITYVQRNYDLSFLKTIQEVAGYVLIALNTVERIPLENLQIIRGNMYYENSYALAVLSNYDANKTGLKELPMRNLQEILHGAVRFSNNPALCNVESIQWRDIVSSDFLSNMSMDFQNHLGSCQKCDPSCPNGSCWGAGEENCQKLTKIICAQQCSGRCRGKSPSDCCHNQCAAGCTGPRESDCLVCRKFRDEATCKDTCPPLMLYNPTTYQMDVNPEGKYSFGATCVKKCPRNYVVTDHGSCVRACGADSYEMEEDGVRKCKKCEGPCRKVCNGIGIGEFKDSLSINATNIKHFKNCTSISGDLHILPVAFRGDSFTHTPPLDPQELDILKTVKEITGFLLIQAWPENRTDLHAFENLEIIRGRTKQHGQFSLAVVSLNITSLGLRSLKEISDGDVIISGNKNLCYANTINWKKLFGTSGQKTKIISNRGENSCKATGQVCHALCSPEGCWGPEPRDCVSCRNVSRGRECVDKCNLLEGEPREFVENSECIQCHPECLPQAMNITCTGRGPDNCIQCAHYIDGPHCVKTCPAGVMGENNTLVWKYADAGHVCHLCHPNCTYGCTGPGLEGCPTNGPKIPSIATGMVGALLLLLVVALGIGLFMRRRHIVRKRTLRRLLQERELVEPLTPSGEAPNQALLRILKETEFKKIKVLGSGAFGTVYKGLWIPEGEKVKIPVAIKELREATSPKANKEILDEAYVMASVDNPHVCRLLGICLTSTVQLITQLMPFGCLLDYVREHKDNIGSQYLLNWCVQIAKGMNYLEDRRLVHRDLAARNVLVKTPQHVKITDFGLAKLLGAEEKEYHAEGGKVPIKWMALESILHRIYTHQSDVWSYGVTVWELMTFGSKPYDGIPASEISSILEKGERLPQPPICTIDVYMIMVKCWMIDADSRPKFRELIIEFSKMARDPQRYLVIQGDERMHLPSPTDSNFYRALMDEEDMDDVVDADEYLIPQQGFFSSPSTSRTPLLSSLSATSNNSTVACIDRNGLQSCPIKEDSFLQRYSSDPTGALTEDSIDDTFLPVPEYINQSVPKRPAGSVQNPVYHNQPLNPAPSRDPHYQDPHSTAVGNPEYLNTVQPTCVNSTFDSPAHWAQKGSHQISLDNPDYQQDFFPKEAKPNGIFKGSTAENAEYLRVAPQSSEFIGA

SMILES: COc1ccc2c(c1)CCN2c1nc(C)nc2oc(C)cc12 [Compound 8, 4-(5-methoxyindolin-1-yl)-2,6-dimethylfuro[2,3-d]pyrimidine]
effect on cellular microtubules [1]: no effect on cellular microtubules

SMILES: COc1ccc(N(C)c2nc(C)nc3oc(C)cc23)cc1 [Compound 1]
IC50 (tubulin): 2.4 ± 0.01 µM
Rr value (M6/6 cells): 1.7
Rr value (WTβ3 cells): 0.8
EC50 ([1]; Rattus norvegicus, A10, 18 h, read-out: EC50 for MT depolymerization in A · 10 cells): 103 nM

SMILES: COc1ccc(N(C)c2nc(C)nc3oc(C)cc23)cc1OC [Compound 3, N-(3,4-dimethoxyphenyl)-N,2,6-trimethylfuro[2,3-d]pyrimidin-4-amine]
effect on cellular microtubules [1]: dose-dependent loss of cellular microtubules

IC50 (EGFR): > 500 nM
SMILES: COc1ccc2c(ccn2-c2nc(C)nc3oc(C)cc23)c1 [Compound 9, 4-(5-methoxy-1H-indol-1-yl)-2,6-dimethylfuro[2,3-d]pyrimidine]

IC50 (PDGFR-β): 132 ± 14.4 nM
IC50 (M6/6 cells): 30.8 ± 1.7 nM
IC50 (EGFR): > 500 nM
IC50 (VEGFR-2): 121 ± 18.6 nM
SMILES: CCCOc1ccc(N(C)c2nc(C)nc3oc(C)cc23)cc1 [Compound 12, N-2,6-trimethyl-N-(4-propoxyphenyl)furo[2,3-d]pyrimidin-4-amine]
Rr value (M6/6 cells): 1.3
IC50 (A431 cancer cells): 92.9 ± 10.1 nM

IC50 (EGFR): > 500 nM
IC50 (VEGFR-2): > 300 nM
SMILES: COc1cc(N(C)c2nc(C)nc3oc(C)cc23)cc(OC)c1OC [Compound 4, N,2,6-trimethyl-N-(3,4,5-trimethoxyphenyl)furo[2,3-d]pyrimidin-4-amine]

SMILES: CC(=O)O[C@H]1C(=O)[C@@]2(C)[C@H]([C@H](OC(=O)c3ccccc3)[C@]3(O)C[C@H](OC(=O)[C@H](O)[C@@H](NC(=O)c4ccccc4)c4ccccc4)C(C)=C1C3(C)C)[C@]1(OC(C)=O)CO[C@@H]1C[C@@H]2O [Paclitaxel, reference compound]
Rr value (M6/6 cells): over 250 and 265.2
Rr value (WTβ3 cells): 17.3

SMILES: COc1ccc(/C=C\c2cc(OC)c(OC)c(OC)c2)cc1O [CA-4, combretastatin A-4, reference compound]
Rr value (M6/6 cells): 0.4
Rr value (WTβ3 cells): 1.0

fold better than sunitinib, PDGFR-β (PDGFR-β): about 4 fold
IC50 (M6/6 cells): 509 ± 4.8 nM
fold better than sunitinib, VEGFR-2 (VEGFR-2): 3 fold
SMILES: Cc1nc(N(C)c2ccc3occc3c2)c2cc(C)oc2n1 [Compound 7, N-1-benzofuran-5-yl-N,2,6-trimethylfuro[2,3-d]pyrimidin-4-amine]
Rr value (M6/6 cells): 1.2
effect on cellular microtubules [1]: dose-dependent loss of cellular microtubules

SMILES: COc1ccc2c(c1)CCCN2c1nc(C)nc2oc(C)cc12 [Compound 10, 4-(6-methoxy-3,4-dihydroquinolin-1(2H)-yl)-2,6-dimethylfuro[2,3-d]pyrimidine]
effect on cellular microtubules [1]: dose-dependent loss of cellular microtubules

fold better than sunitinib, PDGFR-β (PDGFR-β): about 4 fold
IC50 (M6/6 cells): 155 ± 17.2 nM
fold better than sunitinib, VEGFR-2 (VEGFR-2): 3 fold
SMILES: Cc1nc(N(C)c2ccc3c(c2)CCO3)c2cc(C)oc2n1 [Compound 6, N-(2,3-dihydro-1-benzofuran-5-yl)-N,2,6-trimethylfuro[2,3-d]pyrimidin-4-amine]
Rr value (M6/6 cells): 1.3
effect on cellular microtubules [1]: dose-dependent loss of cellular microtubules

IC50 (PDGFR-β): 84 ± 10 nM
IC50 (EGFR): 102 ± 20.1 nM
IC50 (VEGFR-2): 38.5 ± 4.7 nM
SMILES: CCOc1ccc(N(C)c2nc(C)nc3oc(C)cc23)cc1 [Compound 11, N-(4-ethoxyphenyl)-N,2,6-trimethylfuro[2,3-d]pyrimidin-4-amine]
